Measured values taken from ChEMBL document CHEMBL6083220, “Chemically induced degradation of PRC2 complex by EZH2-Targeted PROTACs via a Ubiquitin-Proteasome pathway” (Bioorg Med Chem Lett, 2024).
Calls of active or inactive are those of the source. No cut-off for these calls is given here.

How the values were obtained:
[1] = system: OCI-Ly7; experiment: Antiproliferative activity against human OCILY7 cells by MTT assay; type: functional, cell-based
[2] = Antiproliferative activity against human MINO cells by MTT assay; type: functional, cell-based
[3] = Induction of cell cycle arrest in human MINO cells assessed as G2/M phase cells at 5 uM incubated for 24 hrs by propidium iodide staining based flow cytometry assay (reference value: 7.26%); type: functional
[4] = system: MINO; experiment: Induction of mitochondrial apoptosis pathway in human MINO cells assessed as upregulation of cytochrome C expression at 5 uM incubated for 24 hrs by Western blotting assay; type: functional, cell-based
[5] = Induction of apoptosis in human MINO cells assessed as early apoptotic cells at 5 uM incubated for 24 hrs by Annexin V-FITC/PI staining based flow cytometry assay (reference value: 1.04%); type: functional
[6] = Induction of apoptosis in human MINO cells assessed as late apoptotic cells at 5 uM incubated for 24 hrs by Annexin V-FITC/PI staining based flow cytometry assay (reference value: 8.29%); type: functional
[7] = Induction of apoptosis in human MINO cells assessed as viable cells at 5 uM incubated for 24 hrs by Annexin V-FITC/PI staining based flow cytometry assay (reference value: 89.93%); type: functional; conditions: read-out: Activity
[8] = Induction of cell cycle arrest in human MINO cells assessed as S phase cells at 5 uM incubated for 24 hrs by propidium iodide staining based flow cytometry assay (reference value: 25.19%); type: functional
[9] = system: MINO; experiment: Induction of mitochondrial apoptosis pathway in human MINO cells assessed as upregulation of bax protein expression at 5 uM incubated for 24 hrs by Western blotting assay; type: functional, cell-based
[10] = system: MINO; experiment: Downregulation of EED protein expression in human MINO cells at 5 uM incubated for 24 hrs by Western blotting assay; type: functional, cell-based
[11] = system: MINO; experiment: Downregulation of SUZ12 protein expression in human MINO cells at 5 uM incubated for 24 hrs by Western blotting assay; type: functional, cell-based
[12] = Induction of apoptosis in human MINO cells assessed as necrotic cells at 5 uM incubated for 24 hrs by Annexin V-FITC/PI staining based flow cytometry assay (reference value: 0.74%); type: functional
[13] = system: MINO; experiment: Induction of mitochondrial apoptosis pathway in human MINO cells assessed as downregulation of procaspase-9 expression at 5 uM incubated for 24 hrs by Western blotting assay; type: functional, cell-based
[14] = system: MINO; experiment: Downregulation of H3k27me3 protein expression in human MINO cells at 5 uM incubated for 24 hrs by Western blotting assay; type: functional, cell-based
[15] = system: MINO; experiment: Induction of mitochondrial apoptosis pathway in human MINO cells assessed as downregulation of procaspase-3 expression at 5 uM incubated for 24 hrs by Western blotting assay; type: functional, cell-based
[16] = Induction of cell cycle arrest in human MINO cells assessed as G0/G1 phase cells at 5 uM incubated for 24 hrs by propidium iodide staining based flow cytometry assay (reference value: 67.56%); type: functional
[17] = system: MINO; experiment: Induction of mitochondrial apoptosis pathway in human MINO cells assessed as upregulation of cleaved PARP expression at 5 uM incubated for 24 hrs by Western blotting assay; type: functional, cell-based
[18] = system: MINO; experiment: Downregulation of RbAp48 protein expression in human MINO cells at 5 uM incubated for 24 hrs by Western blotting assay; type: functional, cell-based
[19] = system: MINO; experiment: Downregulation of EZH2 protein expression in human MINO cells at 5 uM incubated for 24 hrs by Western blotting assay; type: functional, cell-based
[20] = system: MINO; experiment: Induction of mitochondrial apoptosis pathway in human MINO cells assessed as downregulation of bcl-2 expression at 5 uM incubated for 24 hrs by Western blotting assay; type: functional, cell-based

IC50 [1] | Structure (SMILES) | IC50 [2] | further results
4050 nM | CCN(c1cc(-c2ccc(CN3CCN(C(=O)C4CCN(C5CCN(c6cccc7c6C(=O)N(C6CCC(=O)NC6=O)C7=O)CC5)CC4)CC3)cc2)cc(C(=O)NCc2c(C)cc(C)[nH]c2=O)c1C)C1CCOCC1 (configuration not stated) | 980 nM | –
2350 nM | CCN(c1cc(-c2ccc(CN3CCN(C(=O)CN4CCN(c5cccc6c5C(=O)N(C5CCC(=O)NC5=O)C6=O)CC4)CC3)cc2)cc(C(=O)NCc2c(C)cc(C)[nH]c2=O)c1C)C1CCOCC1 (configuration not stated) | 110 nM | –
20 nM | CCN(c1cc(-c2ccc(CN3CCN(C(=O)CCC4CCC(CNc5cccc6c5C(=O)N(C5CCC(=O)NC5=O)C6=O)C4)CC3)cc2)cc(C(=O)NCc2c(C)cc(C)[nH]c2=O)c1C)C1CCOCC1 (configuration not stated) | 30 nM | –
22 nM | CCN(c1cc(-c2ccc(CN3CCN(C(=O)CN4CCC(Nc5cccc6c5C(=O)N(C5CCC(=O)NC5=O)C6=O)CC4)CC3)cc2)cc(C(=O)NCc2c(C)cc(C)[nH]c2=O)c1C)C1CCOCC1 (configuration not stated) | 530 nM | –
22 nM | CCN(c1cc(-c2ccc(CN3CCN(CCCN4CC(CNc5cccc6c5C(=O)N(C5CCC(=O)NC5=O)C6=O)C4)CC3)cc2)cc(C(=O)NCc2c(C)cc(C)[nH]c2=O)c1C)C1CCOCC1 (configuration not stated) | 69 nM | –
170 nM | CCN(c1cc(-c2ccc(CN3CCN(C(=O)CCN4CC(CNc5cccc6c5C(=O)N(C5CCC(=O)NC5=O)C6=O)C4)CC3)cc2)cc(C(=O)NCc2c(C)cc(C)[nH]c2=O)c1C)C1CCOCC1 (configuration not stated) | 510 nM | –
37 nM | CCN(c1cc(-c2ccc(CN3CCN(C(=O)CCC4CCC(CNc5cccc6c5C(=O)N(C5CCC(=O)NC5=O)C6=O)CC4)CC3)cc2)cc(C(=O)NCc2c(C)cc(C)[nH]c2=O)c1C)C1CCOCC1 (configuration not stated) | 39 nM | –
40 nM | CCN(c1cc(-c2ccc(CN3CCN(C(=O)/C=C/C4CCC(CNc5cccc6c5C(=O)N(C5CCC(=O)NC5=O)C6=O)CC4)CC3)cc2)cc(C(=O)NCc2c(C)cc(C)[nH]c2=O)c1C)C1CCOCC1 (configuration not stated) | 24 nM | –
6 nM | CCN(c1cc(-c2ccc(CN3CCN(C(=O)/C=C/C4CC(CNc5cccc6c5C(=O)N(C5CCC(=O)NC5=O)C6=O)C4)CC3)cc2)cc(C(=O)NCc2c(C)cc(C)[nH]c2=O)c1C)C1CCOCC1 (configuration not stated) | 190 nM | –
150 nM | CCN(c1cc(-c2ccc(CN3CCN(C(=O)CN4CCC(Nc5cccc6c5C(=O)N(C5CCC(=O)NC5=O)C6=O)C4)CC3)cc2)cc(C(=O)NCc2c(C)cc(C)[nH]c2=O)c1C)C1CCOCC1 (configuration not stated) | 660 nM | –
1970 nM | CCN(c1cc(-c2ccc(CN3CCN(C(=O)CN4CC(CNc5cccc6c5C(=O)N(C5CCC(=O)NC5=O)C6=O)C4)CC3)cc2)cc(C(=O)NCc2c(C)cc(C)[nH]c2=O)c1C)C1CCOCC1 (configuration not stated) | 950 nM | –
2130 nM | CCN(c1cc(-c2ccc(CN3CCN(C(=O)CN4CCC(CNc5cccc6c5C(=O)N(C5CCC(=O)NC5=O)C6=O)C4)CC3)cc2)cc(C(=O)NCc2c(C)cc(C)[nH]c2=O)c1C)C1CCOCC1 (configuration not stated) | 3210 nM | –
190 nM | CCN(c1cc(-c2ccc(CN3CCN(C(=O)C=C4CCC(CNc5cccc6c5C(=O)N(C5CCC(=O)NC5=O)C6=O)CC4)CC3)cc2)cc(C(=O)NCc2c(C)cc(C)[nH]c2=O)c1C)C1CCOCC1 (configuration not stated) | 690 nM | –
870 nM | CCN(c1cc(-c2ccc(CN3CCN(C(=O)Cc4ccc(CNc5cccc6c5C(=O)N(C5CCC(=O)NC5=O)C6=O)cc4)CC3)cc2)cc(C(=O)NCc2c(C)cc(C)[nH]c2=O)c1C)C1CCOCC1 (configuration not stated) | 1030 nM | –
7 nM | CCN(c1cc(-c2ccc(CN3CCN(C(=O)/C=C/C4CCC(CNc5cccc6c5C(=O)N(C5CCC(=O)NC5=O)C6=O)C4)CC3)cc2)cc(C(=O)NCc2c(C)cc(C)[nH]c2=O)c1C)C1CCOCC1 (configuration not stated) | 57 nM | –
1190 nM | CCN(c1cc(-c2ccc(CN3CCOCC3)cc2)cc(C(=O)NCc2c(C)cc(C)[nH]c2=O)c1C)C1CCOCC1 [TAZEMETOSTAT] | 1070 nM | Activity [3]: 7.74%; Activity [4]: Active; Activity Weaker Than Zj-20; Activity [5]: 0.38%; Activity [6]: 32.16%; viability at 5 µM [7]: 57.2%; Activity [8]: 18.34%; Activity [9]: Active; Activity Weaker Than Zj-20; Activity [10]: inactive; Activity [11]: inactive; Activity [12]: 10.27%; Activity [13]: Active; Activity Weaker Than Zj-20; Activity [14]: Active; Limited Inhibition Observed; Activity [15]: Active; Activity Weaker Than Zj-20; Activity [16]: 73.92%; Activity [17]: Active; Activity Weaker Than Zj-20; Activity [18]: inactive; Activity [19]: inactive; Activity [20]: Active; Activity Weaker Than Zj-20
13 nM | CCN(c1cc(-c2ccc(CN3CCN(CCC4CCC(CNc5cccc6c5C(=O)N(C5CCC(=O)NC5=O)C6=O)CC4)CC3)cc2)cc(C(=O)NCc2c(C)cc(C)[nH]c2=O)c1C)C1CCOCC1 (configuration not stated) | 40 nM | –
10400 nM | CCN(c1cc(-c2ccc(CN3CCN(C(=O)C4CCN(C5CN(c6cccc7c6C(=O)N(C6CCC(=O)NC6=O)C7=O)C5)CC4)CC3)cc2)cc(C(=O)NCc2c(C)cc(C)[nH]c2=O)c1C)C1CCOCC1 (configuration not stated) | 2470 nM | –
10 nM | CCN(c1cc(-c2ccc(CN3CCN(C(=O)CCC4CC(CNc5cccc6c5C(=O)N(C5CCC(=O)NC5=O)C6=O)C4)CC3)cc2)cc(C(=O)NCc2c(C)cc(C)[nH]c2=O)c1C)C1CCOCC1 (configuration not stated) | 48 nM | –
220 nM | CCN(c1cc(-c2ccc(CN3CCN(C(=O)CN4CCCC(CNc5cccc6c5C(=O)N(C5CCC(=O)NC5=O)C6=O)C4)CC3)cc2)cc(C(=O)NCc2c(C)cc(C)[nH]c2=O)c1C)C1CCOCC1 (configuration not stated) | 450 nM | –
18 nM | CCN(c1cc(-c2ccc(CN3CCN(C(=O)C4CCC(CNc5cccc6c5C(=O)N(C5CCC(=O)NC5=O)C6=O)CC4)CC3)cc2)cc(C(=O)NCc2c(C)cc(C)[nH]c2=O)c1C)C1CCOCC1 (configuration not stated) | 34 nM | –
4 nM | CCN(c1cc(-c2ccc(CN3CCN(CC=C4CCC(CNc5cccc6c5C(=O)N(C5CCC(=O)NC5=O)C6=O)CC4)CC3)cc2)cc(C(=O)NCc2c(C)cc(C)[nH]c2=O)c1C)C1CCOCC1 (configuration not stated) | 250 nM | –
